According to ChEMBL document CHEMBL1201862, “PubChem BioAssay data set” (2004):
The source made the active and inactive calls.

How the values were obtained:
Candida albicans [1] = assay: fluconazole-resistant Candida strain growth inhibitors – CaCi-8 strain, dry powder, set 4, dose response (AID 488950); type: functional, organism-based
Candida albicans [2] = assay: C. albicans growth inhibition with fluconazole – CaCi-2 strain, Alamar Blue, dry powder, set 4, dose response (AID 488943); type: functional, organism-based
Candida albicans [3] = assay: resistant Candida growth with fluconazole co-treatment – CaCi-8 strain, Alamar Blue, dry powder, set 2, dose response (AID 488909); type: functional, organism-based
[4] = target: Dual specificity protein phosphatase 3 (Homo sapiens, UniProt P51452); assay: VHR phosphatase inhibition, dose response, selectivity assay for STEP inhibitor project, biochemical (AID 602374); type: functional; conditions: read-out: IC50_Mean
[5] = target: Tyrosine-protein phosphatase non-receptor type 5 (Homo sapiens, UniProt P54829); assay: PTPN5 enzyme inhibition – biochemical, fluorescence intensity, uHTS hits, confirmation (AID 602372); type: functional; conditions: read-out: IC50_Mean
[6] = target: T1, Heat shock factor protein 1 (Mus musculus, UniProt P38532); assay: enhancement of HSF1-driven luciferase signal – cell-based, NIH3T3, luminescence, dose retest, confirmation (AID 435004); type: functional;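 also: stress induced by proteasome inhibitor MG132 added 30 min after compound; luciferase reporter driven by HSF1 response element in NIH3T3 cells; actives raise luminescence as potentiators of the MG132 stress response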
T1 sequence (P38532 whole entry): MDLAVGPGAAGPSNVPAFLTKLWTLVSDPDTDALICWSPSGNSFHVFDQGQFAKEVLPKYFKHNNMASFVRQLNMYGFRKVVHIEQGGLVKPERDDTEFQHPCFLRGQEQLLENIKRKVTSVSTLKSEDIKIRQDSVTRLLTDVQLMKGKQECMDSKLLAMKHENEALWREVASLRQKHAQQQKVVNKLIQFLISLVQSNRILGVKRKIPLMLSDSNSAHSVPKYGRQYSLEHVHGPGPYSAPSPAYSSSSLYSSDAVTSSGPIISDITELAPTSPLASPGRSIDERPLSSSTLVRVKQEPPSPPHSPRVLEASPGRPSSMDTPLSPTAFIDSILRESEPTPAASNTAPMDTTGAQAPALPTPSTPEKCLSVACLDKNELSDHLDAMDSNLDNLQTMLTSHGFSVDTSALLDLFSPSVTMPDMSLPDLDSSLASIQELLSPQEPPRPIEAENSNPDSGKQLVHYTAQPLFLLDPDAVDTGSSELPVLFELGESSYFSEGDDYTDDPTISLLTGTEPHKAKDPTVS

[7] = target: Beta-adrenergic receptor kinase 1 (Homo sapiens, UniProt P25098); assay: aptamer displacement from bead-bound GRK2 – biochemical, cherry pick 1, bead flow cytometry, dose response (AID 504500)
[8] = target: Tyrosine-protein phosphatase non-receptor type 11 (Homo sapiens, UniProt Q06124); assay: PTPN11 enzyme inhibitors – biochemical, selectivity assay for STEP inhibitor project, dose response (AID 602367); type: functional; conditions: read-out: IC50_Mean
[9] = NIH-3T3 fibroblast cytotoxicity, dose response, cytotoxicity control, cell-based, fluorescence, Alamar Blue, secondary assay (AID 2327); type: functional;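 also: NIH-3T3 mouse fibroblasts cultured with fluconazole at 8 µg/mL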
Exodeoxyribonuclease V = Exodeoxyribonuclease V (Escherichia coli (strain K12), UniProt P04993+P07648+P08394); assay: RecBCD inhibition via phage-restricted bacterial growth – absorbance, V66 E. coli, mutant T4 phage, counter-screen for AddAB inhibitor project, dose response (AID 492957); type: functional, cell-based, Escherichia coli str. K-12 substr. MG1655
[10] = non-specific 3'UTR reporter inhibition in Clone20-Shn3RL – cell-based, Renilla luciferase, cherry-picked, counter-screen for Shn3 inhibitor project, dose response (AID 624133); type: functional
BJ [11] = assay: cells; type: functional, cell-based; conditions: Homo sapiens
cells [12] = type: functional, cell-based
BJ [13] = assay: BJ-TERT fibroblast viability loss – cell-based, RAS-independent, luminescence, dose response (AID 1933); type: functional; conditions: Homo sapiens
[14] = fluconazole-exposed Candida albicans growth modulators – fluorescence, retest, confirmation (AID 2467); type: functional, cell-based
[15] = target: ATP-dependent molecular chaperone HSP82 (Candida albicans (strain WO-1) (Yeast), UniProt C4YTQ8); assay: steroid-induced GRE reporter decrease in yeast – S. cerevisiae, luminescence, Hsp90 inhibitor project, dose response (AID 2400); type: functional, cell-based;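 also: beta-galactosidase luminescence from glucocorticoid response element reporter as proxy for Hsp90 function; inhibitor potency where signal loss means Hsp90 inhibition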
[16] = Counterscreen for AddAB inhibitors: absorbance-based bacterial cell-based high throughput dose response assay for inhibitors of bacterial viability. [Related pubchem assays (depositor defined):AID435030, AID449728, AID449731, AID488942, AID488955, AID488956]; type: functional
[17] = target: Serine/threonine-protein phosphatase (Candida dubliniensis (strain CD36 / CBS 7987 / NCPF 3949 / NRRLY-17841) (Yeast), UniProt B9W6M3); assay: blockers of CaCl2-induced CDRE-lacZ signaling – S. cerevisiae, luminescence, secondary, dose response (AID 2388); type: functional, cell-based;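 also: yeast reporter cells carrying a calcineurin-responsive lacZ construct stimulated with calcium chloride; luminescent beta-galactosidase reporter signal in whole cells rather than isolated phosphatase activity; potency for inhibition where a drop in reporter signal means calcineurin blockade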
[18] = loss of viability in HepG2 cells – cell-based, CellTiter-Glo, cherry-picked, cytotoxicity control for Shn3 inhibitor project, dose response (AID 624134); type: functional
INS1 = assay: INS-1E survival protection against cytokine death – cell-based, luminescence, retest, dose response (AID 449756); type: functional; conditions: Rattus norvegicus;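 also: cell death triggered by IL-1 beta plus TNF-alpha plus IFN-gamma mixture; protective hits raise ATP signal compared with cytokine alone wells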
HEK293 = assay: EBV LMP1 TES2 canonical NF-kB signalling blockers – cell-based, HEK293, luciferase, cherry-pick, dose response (AID 588343); type: functional, Homo sapiens; conditions: Homo sapiens, HEK293
cells [19] = type: functional, cell-based; remark: listed apart in the source
BJ [20] = assay: BJ-TERT-LT-ST fibroblast viability loss – cell-based, RAS-independent, luminescence, dose response (AID 1935); type: functional; conditions: Homo sapiens;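 also: BJ fibroblasts immortalized with TERT plus LT and ST oncogenes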
[21] = DRD fibroblast viability loss – cell-based, non-viral oncogenic, luminescence, dose response (AID 1934); type: functional; conditions: Homo sapiens
[22] = target: T2, Latent membrane protein 1 (Human herpesvirus 4 (strain B95-8), UniProt P03230); assay: LMP1 TES1 pathway selectivity over dsRED control – imaging, HEK293T, dual-color eGFP/dsRED, cherry-picks, selectivity assay for LMP1 NF-kB inhibitor project, dose response (AID 588398); type: functional, cell-based
T2 sequence (P03230 whole entry): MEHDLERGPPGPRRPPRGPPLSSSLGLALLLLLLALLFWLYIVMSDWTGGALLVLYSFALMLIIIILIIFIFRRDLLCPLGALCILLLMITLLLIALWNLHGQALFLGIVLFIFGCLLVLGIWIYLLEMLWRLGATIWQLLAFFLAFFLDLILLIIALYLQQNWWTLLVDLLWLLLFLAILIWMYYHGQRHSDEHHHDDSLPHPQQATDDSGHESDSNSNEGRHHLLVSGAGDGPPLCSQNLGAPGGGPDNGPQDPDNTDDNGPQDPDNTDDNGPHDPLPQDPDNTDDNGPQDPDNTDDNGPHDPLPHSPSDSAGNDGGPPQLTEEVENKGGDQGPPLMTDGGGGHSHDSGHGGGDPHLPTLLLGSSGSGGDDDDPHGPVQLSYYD

[23] = reduction of Shn3 3'UTR-driven luciferase in osteoblasts – cell-based, Clone20 osteoblasts, firefly luciferase, cherry-picked, dose response (AID 624132); type: functional;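 also: firefly luciferase luminescence from reporter carrying the Shn3 3'UTR in osteoblasts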
Hexokinase HKDC1 = target: T3, Hexokinase HKDC1 (Homo sapiens, UniProt Q2TB90); assay: SAR analysis of small molecule inhibitors of hexokinase domain containing I (HKDC1). [Related pubchem assays (depositor defined):AID493160, AID493190]; type: functional
T3 sequence (Q2TB90 whole entry): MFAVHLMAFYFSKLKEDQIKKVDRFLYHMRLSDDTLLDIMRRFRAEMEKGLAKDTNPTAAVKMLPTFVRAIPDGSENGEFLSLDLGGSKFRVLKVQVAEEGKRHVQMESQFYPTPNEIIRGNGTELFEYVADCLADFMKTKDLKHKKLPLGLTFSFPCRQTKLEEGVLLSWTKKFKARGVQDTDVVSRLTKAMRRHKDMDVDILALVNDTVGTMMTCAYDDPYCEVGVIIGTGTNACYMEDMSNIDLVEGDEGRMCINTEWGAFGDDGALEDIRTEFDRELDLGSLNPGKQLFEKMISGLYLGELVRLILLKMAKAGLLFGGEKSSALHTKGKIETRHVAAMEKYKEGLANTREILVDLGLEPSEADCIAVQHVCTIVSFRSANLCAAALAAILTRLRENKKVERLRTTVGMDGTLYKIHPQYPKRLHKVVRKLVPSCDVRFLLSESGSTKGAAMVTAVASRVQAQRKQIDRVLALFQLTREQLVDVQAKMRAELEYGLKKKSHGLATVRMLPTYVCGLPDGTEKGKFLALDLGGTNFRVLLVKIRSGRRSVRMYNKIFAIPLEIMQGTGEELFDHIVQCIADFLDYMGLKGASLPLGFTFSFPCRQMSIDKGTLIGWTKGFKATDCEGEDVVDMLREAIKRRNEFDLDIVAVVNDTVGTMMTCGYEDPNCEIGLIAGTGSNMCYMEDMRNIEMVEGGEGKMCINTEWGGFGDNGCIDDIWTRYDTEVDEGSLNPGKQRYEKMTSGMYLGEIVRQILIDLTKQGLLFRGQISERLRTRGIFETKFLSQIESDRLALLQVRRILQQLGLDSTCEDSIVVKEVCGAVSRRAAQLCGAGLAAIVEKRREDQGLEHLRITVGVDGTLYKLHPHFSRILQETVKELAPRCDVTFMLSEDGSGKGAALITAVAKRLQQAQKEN

Hexokinase-1 = Hexokinase-1 (Homo sapiens, UniProt P19367); assay: SAR analysis of small molecule inhibitors of hexokinase domain containing I (HKDC1) in the hexokinase 1 selectivity assay. [Related pubchem assays (depositor defined):AID493160, AID493190]; type: functional
[24] = target: T4, Endoribonuclease toxin MazF (Escherichia coli K-12, UniProt P0AE70); assay: substrate-only fluorescence increase artefacts – biochemical, single-stranded RNase substrate, counter-screen for MazEF activator project, dose response (AID 588502); type: functional
[25] = target: T5, RNA-binding protein pos-1 (Caenorhabditis elegans, UniProt G5EF15); assay: disruptors of C. elegans POS-1 RNA interaction – biochemical, fluorescence polarization, dose response (AID 1964);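 also: purified POS-1 fused to maltose binding protein made in E. coli; potency of compounds blocking POS-1 binding to fluorescent RNA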
T5 sequence (G5EF15 whole entry): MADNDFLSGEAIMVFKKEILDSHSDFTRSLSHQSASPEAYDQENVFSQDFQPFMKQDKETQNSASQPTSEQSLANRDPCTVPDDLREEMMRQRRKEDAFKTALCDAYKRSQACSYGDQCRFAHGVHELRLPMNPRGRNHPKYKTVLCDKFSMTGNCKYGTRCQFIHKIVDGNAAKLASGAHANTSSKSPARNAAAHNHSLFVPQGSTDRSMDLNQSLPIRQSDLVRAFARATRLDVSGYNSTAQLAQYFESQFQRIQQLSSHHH

[26] = target: T6, Zinc finger protein mex-5 (Caenorhabditis elegans, UniProt Q9XUB2); assay: potency of MEX-5 RNA-binding blockers – biochemical, C. elegans, fluorescence polarization, dose response (AID 1960)
T6 sequence (Q9XUB2 whole entry): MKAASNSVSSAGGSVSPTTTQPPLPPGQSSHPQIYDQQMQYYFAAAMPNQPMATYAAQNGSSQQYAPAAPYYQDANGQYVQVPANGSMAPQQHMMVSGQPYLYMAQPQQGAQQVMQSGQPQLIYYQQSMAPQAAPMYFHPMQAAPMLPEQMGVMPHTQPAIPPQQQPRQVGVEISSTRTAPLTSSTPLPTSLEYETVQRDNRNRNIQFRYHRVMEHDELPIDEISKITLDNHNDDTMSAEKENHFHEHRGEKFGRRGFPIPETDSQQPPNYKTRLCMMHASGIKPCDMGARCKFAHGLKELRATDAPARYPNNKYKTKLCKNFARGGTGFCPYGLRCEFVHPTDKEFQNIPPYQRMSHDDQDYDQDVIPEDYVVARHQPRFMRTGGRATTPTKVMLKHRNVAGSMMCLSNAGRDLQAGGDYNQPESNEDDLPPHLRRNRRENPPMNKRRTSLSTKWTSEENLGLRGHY

[27] = target: T4, Endoribonuclease toxin MazF; assay: activation of MazEF endoribonuclease cleavage – biochemical, fluorescence, single-stranded RNA substrate, uHTS hits, dose response (AID 588481); type: functional

T4 sequence (P0AE70 whole entry, the tested form may be a part): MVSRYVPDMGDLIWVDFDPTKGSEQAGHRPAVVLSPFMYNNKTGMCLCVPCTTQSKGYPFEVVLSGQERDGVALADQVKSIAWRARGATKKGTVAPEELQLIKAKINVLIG
Chain of Dual specificity protein phosphatase 3 (P51452 whole entry): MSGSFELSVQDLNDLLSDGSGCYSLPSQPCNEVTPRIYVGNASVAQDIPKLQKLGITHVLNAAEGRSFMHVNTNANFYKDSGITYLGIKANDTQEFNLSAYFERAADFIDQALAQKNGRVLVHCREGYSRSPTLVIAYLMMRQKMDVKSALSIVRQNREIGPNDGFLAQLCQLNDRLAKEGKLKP
Chain of Serine/threonine-protein phosphatase (B9W6M3 whole entry): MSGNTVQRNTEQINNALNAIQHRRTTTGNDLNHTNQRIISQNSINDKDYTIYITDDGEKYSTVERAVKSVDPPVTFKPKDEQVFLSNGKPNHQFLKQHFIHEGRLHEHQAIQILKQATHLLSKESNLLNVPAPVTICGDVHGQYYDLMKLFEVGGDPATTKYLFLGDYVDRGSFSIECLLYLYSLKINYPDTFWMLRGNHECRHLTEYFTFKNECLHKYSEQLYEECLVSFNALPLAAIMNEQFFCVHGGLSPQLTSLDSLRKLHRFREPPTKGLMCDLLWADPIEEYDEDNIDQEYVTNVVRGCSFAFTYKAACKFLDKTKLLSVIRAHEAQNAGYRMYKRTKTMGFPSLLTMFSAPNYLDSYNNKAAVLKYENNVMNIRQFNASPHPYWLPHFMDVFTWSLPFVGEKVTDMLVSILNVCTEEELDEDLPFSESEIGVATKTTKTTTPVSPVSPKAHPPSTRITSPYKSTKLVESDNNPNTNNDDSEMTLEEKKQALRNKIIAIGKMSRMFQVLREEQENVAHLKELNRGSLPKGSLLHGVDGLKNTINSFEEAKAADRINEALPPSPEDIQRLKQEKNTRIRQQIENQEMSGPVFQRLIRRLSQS
Chain of Tyrosine-protein phosphatase non-receptor type 11 (Q06124 whole entry): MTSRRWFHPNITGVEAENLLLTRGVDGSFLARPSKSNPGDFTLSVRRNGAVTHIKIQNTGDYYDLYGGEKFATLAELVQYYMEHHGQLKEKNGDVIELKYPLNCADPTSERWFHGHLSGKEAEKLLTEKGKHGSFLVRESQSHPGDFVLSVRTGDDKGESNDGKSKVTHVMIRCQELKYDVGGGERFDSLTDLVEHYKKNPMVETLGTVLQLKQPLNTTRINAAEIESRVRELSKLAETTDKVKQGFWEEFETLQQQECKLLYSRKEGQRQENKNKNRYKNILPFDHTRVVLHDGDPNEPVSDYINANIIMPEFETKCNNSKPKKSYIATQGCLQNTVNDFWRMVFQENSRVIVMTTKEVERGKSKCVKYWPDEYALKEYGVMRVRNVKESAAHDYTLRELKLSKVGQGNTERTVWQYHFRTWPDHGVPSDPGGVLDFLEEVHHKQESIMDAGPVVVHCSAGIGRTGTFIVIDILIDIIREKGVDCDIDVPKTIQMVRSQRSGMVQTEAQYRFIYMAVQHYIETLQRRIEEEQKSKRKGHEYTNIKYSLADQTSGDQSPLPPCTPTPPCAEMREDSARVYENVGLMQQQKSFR
Chain of Hexokinase-1 (P19367 whole entry, the tested form may be a part): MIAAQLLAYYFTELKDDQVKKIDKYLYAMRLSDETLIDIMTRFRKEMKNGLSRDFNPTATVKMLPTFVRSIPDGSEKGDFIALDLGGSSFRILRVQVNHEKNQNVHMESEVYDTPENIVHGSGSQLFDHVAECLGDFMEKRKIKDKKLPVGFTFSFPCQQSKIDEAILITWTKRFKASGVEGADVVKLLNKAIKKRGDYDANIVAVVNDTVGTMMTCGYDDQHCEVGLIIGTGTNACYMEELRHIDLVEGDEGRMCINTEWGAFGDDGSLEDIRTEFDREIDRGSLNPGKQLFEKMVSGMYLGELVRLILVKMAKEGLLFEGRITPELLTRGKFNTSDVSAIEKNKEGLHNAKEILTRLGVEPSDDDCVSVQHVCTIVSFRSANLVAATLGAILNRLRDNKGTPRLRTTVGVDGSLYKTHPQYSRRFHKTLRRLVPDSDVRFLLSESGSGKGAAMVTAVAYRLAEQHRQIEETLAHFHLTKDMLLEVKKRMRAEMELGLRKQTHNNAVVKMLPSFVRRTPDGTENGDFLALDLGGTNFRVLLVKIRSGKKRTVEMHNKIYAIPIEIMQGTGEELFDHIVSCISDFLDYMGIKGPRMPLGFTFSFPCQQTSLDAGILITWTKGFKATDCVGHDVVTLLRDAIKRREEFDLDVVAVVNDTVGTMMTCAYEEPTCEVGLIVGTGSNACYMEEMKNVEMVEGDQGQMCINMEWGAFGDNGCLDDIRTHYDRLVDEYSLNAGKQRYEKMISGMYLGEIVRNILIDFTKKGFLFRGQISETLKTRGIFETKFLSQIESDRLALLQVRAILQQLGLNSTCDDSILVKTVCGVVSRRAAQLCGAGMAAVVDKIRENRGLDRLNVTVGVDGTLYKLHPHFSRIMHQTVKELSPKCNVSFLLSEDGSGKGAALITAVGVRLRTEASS
Chain of Beta-adrenergic receptor kinase 1 (P25098 whole entry): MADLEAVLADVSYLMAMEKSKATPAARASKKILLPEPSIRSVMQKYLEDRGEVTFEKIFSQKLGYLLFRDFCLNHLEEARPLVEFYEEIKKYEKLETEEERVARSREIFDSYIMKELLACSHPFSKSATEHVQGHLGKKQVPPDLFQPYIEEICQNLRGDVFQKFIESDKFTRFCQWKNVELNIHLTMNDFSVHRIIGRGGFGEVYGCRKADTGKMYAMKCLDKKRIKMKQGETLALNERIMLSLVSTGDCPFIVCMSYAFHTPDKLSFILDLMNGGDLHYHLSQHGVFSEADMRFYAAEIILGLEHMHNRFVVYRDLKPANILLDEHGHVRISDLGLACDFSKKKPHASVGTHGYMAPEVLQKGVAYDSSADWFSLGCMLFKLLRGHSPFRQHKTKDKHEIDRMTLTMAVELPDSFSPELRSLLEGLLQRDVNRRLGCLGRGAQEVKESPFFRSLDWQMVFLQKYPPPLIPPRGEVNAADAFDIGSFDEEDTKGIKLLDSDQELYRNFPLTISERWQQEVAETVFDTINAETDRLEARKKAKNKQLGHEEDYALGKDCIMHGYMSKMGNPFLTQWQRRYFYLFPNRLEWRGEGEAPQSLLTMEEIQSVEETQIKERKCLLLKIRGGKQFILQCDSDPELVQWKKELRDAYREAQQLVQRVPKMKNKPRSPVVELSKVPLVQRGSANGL
Chain of Tyrosine-protein phosphatase non-receptor type 5 (P54829 whole entry): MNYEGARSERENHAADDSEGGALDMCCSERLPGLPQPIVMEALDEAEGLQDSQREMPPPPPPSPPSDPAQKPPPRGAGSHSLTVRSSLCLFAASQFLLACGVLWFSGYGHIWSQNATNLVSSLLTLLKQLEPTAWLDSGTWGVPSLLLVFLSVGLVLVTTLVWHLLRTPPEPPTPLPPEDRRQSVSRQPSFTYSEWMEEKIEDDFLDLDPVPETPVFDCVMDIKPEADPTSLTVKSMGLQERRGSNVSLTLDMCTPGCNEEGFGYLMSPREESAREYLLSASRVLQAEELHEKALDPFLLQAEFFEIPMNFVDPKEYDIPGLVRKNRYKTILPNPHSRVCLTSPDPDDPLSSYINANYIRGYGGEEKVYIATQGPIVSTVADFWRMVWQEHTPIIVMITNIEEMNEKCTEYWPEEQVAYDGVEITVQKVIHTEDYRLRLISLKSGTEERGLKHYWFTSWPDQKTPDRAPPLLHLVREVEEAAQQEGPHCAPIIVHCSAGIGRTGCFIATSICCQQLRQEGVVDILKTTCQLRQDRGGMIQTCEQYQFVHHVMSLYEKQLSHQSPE
Chain of ATP-dependent molecular chaperone HSP82 (C4YTQ8 whole entry): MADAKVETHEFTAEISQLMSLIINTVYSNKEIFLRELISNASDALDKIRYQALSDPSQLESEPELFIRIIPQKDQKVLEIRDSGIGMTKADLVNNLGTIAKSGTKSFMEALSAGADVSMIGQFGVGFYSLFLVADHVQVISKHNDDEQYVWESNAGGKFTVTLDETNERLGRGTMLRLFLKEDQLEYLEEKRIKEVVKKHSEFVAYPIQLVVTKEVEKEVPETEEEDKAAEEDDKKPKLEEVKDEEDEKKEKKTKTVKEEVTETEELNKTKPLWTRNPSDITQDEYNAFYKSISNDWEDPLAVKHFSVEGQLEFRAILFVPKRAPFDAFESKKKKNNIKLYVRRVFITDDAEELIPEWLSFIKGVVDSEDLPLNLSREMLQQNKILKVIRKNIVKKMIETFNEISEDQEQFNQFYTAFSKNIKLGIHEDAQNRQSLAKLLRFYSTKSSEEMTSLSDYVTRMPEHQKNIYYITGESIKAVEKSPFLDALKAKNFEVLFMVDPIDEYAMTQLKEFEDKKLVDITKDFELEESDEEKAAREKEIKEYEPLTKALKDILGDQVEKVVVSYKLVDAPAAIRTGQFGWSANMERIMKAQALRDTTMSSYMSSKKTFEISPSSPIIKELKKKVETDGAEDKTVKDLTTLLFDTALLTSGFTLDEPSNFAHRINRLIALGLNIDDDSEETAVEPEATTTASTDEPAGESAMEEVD

SMILES: O=C(c1ccccc1Cl)N1CCN(c2ccnc3cc(Cl)ccc23)CC1
- AC50 (Candida albicans [1]): 7.36 µM (active)
- AC50 (Candida albicans [2]): 4.8 µM (active)
- AC50 (Candida albicans [3]): 25.2 µM (active)

SMILES: CCOC(=O)CC(NS(=O)(=O)c1ccc2ncc(C(=O)O)c(O)c2c1)c1ccc(OCC)c(OC)c1 (configuration not stated)
- IC50 [4]: 3 µM (active)
- IC50 [5]: 46.3 µM (inactive)
- EC50 [6]: > 260 µM (inactive)
- EC50 [7]: 3.62 µM (active)
- IC50 [8]: 1.53 µM (active)

SMILES: Oc1cccc(C(Nc2nccs2)c2ccc3cccnc3c2O)c1 (configuration not stated)
- EC50 [9]: 20.1 µM (inconclusive)
- IC50 (Exodeoxyribonuclease V): > 119 µM (inactive)
- AC50 [10]: 1.87 µM (active)
- EC50 (BJ [11]): 8.06 µM (active)
- EC50 (cells [12]): > 350 µM (not active)
- EC50 (BJ [13]): 9.83 µM (active)
- EC50 [14]: 796 nM (active)
- EC50 [15]: > 160 µM (inactive)
- IC50 [16]: 107 µM (inactive)
- EC50 [17]: > 180 µM (inactive)
- AC50 [18]: 5.04 µM (active)
- AC50 (INS1): 950 nM (active)
- AC50 (HEK293): 14 µM (active)
- EC50 (cells [19]): 13.2 µM (active)
- EC50 (BJ [20]): 6.31 µM (active)
- EC50 [21]: 6.12 µM (active)
- AC50 [22]: 8.97 µM (active)
- AC50 [23]: 1.67 µM (active)

SMILES: O=C(CSc1ncccn1)Nc1cccc(S(=O)(=O)N2CCOCC2)c1
- IC50 (Hexokinase HKDC1): > 80 µM (inactive)
- IC50 (Hexokinase-1): > 80 µM (inactive)

SMILES: CC(=O)N1CCN(c2ccc(N/C=C3\C(=O)NC(=O)N(Cc4ccccc4)C3=O)cc2)CC1
- EC50 [24]: 19 µM (active)
- EC50 [25]: > 300 µM (not active)
- EC50 [26]: 83.1 µM (active)
- EC50 [27]: > 99 µM (inactive)
